Experimental data taken from patent US20160090556A1, “PRODUCTS COMPRISING MALODOR REDUCTION MATERIALS” (The Procter & Gamble Company, priority 2014, published 2016).

experiment: Liquid dish neat product liquid-air partition coefficient; assay type: physicochemical; conditions: not given

Row | Structure (SMILES) | Log of liquid dish neat product liquid-air partition coefficient (Comment Code K/L)
1 | CC(=O)OC12CCCC(C)(CCC3C1CC3(C)C)C2 (stereo not shown) [Material 573] | K (Log of liquid dish neat product liquid-air partition coefficient greater than or equal to −7)
2 | CC12CCCC(O)(C1)C1CC(C)(C)C1CC2 (stereo not shown) [Material 574] | K (Log of liquid dish neat product liquid-air partition coefficient greater than or equal to −7)
3 | CCCCCCCCCC(=O)O [Material 582] | K (Log of liquid dish neat product liquid-air partition coefficient greater than or equal to −7)
4 | C/C(=C/C#N)CCc1ccccc1 [Material 892] | K (Log of liquid dish neat product liquid-air partition coefficient greater than or equal to −7)
5 | C=CCCCCCCCCC=O [Material 871] | K (Log of liquid dish neat product liquid-air partition coefficient greater than or equal to −7)
6 | CC(C)=CCCC1=CCC(C#N)CC1 (stereo not shown) [Material 660] | K (Log of liquid dish neat product liquid-air partition coefficient greater than or equal to −7)
7 | CC1=CC(C)C2(CCCC(C)(C)C2=O)CC1 (stereo not shown) [Material 1022] | K (Log of liquid dish neat product liquid-air partition coefficient greater than or equal to −7)
8 | CC/C(=C/CC1CC=C(C)C1(C)C)CO (stereo not shown) [Material 1024] | K (Log of liquid dish neat product liquid-air partition coefficient greater than or equal to −7)
9 | CC1(O)CCC2=C(CCCC2(C)C)C1 (stereo not shown) [Material 676] | K (Log of liquid dish neat product liquid-air partition coefficient greater than or equal to −7)
10 | CCCOC(C)OCCc1ccccc1 (stereo not shown) [Material 766] | K (Log of liquid dish neat product liquid-air partition coefficient greater than or equal to −7)
11 | COc1ccc(CC(C)C=O)cc1 (stereo not shown) [Material 586] | K (Log of liquid dish neat product liquid-air partition coefficient greater than or equal to −7)
12 | CC(C)=CCC=C(C)C1CC=C(C)CC1 (stereo not shown) [Material 719] | K (Log of liquid dish neat product liquid-air partition coefficient greater than or equal to −7)
13 | CC1=CCC(O)(C(C)C)CC1 (stereo not shown) [Material 800] | K (Log of liquid dish neat product liquid-air partition coefficient greater than or equal to −7)
14 | CC(C)(C)c1ccc(CCC=O)cc1 [Material 601] | K (Log of liquid dish neat product liquid-air partition coefficient greater than or equal to −7)
15 | CCCCCCCCCCO [Material 868] | K (Log of liquid dish neat product liquid-air partition coefficient greater than or equal to −7)

same assay, conditions: class code letter within Comment Code

Row | Structure (SMILES) | Log of liquid dish neat product liquid-air partition coefficient (Comment Code K/L)
16 | CC(C)C(=O)OCC=Cc1ccccc1 [Material 550] | K (Log of liquid dish neat product liquid-air partition coefficient greater than or equal to −7)
17 | C=CC1(C)CCC(C(C)(C)O)O1 (stereo not shown) [Material 156] | K (Log of liquid dish neat product liquid-air partition coefficient greater than or equal to −7)
18 | CC(CO)C1CCCCCCCCCCC1 (stereo not shown) [Material 252] | K (Log of liquid dish neat product liquid-air partition coefficient greater than or equal to −7)
19 | c1ccc2occc2c1 [Material 493] | K (Log of liquid dish neat product liquid-air partition coefficient greater than or equal to −7)
20 | C=C(C)[C@@H]1CCC2=CC(=O)C[C@@H](C)[C@]2(C)C1 [Material 48] | K (Log of liquid dish neat product liquid-air partition coefficient greater than or equal to −7)
21 | CC1CCCCCCCCCCCCC(=O)C1 (stereo not shown) [Material 79] | K (Log of liquid dish neat product liquid-air partition coefficient greater than or equal to −7)
22 | CCNC(=O)C1CC(C)CCC1C(C)C (stereo not shown) [Material 57] | K (Log of liquid dish neat product liquid-air partition coefficient greater than or equal to −7)
23 | CC/C=C\C/C=C\CCO [Material 546] | K (Log of liquid dish neat product liquid-air partition coefficient greater than or equal to −7)
24 | CC(=O)c1oc2ccccc2c1C [Material 61] | K (Log of liquid dish neat product liquid-air partition coefficient greater than or equal to −7)
25 | CC(=O)OC1(C)CCC(=C(C)C)CC1 (stereo not shown) [Material 317] | K (Log of liquid dish neat product liquid-air partition coefficient greater than or equal to −7)
26 | CCC1=CCCC(C)(C)C12C=CC(C)O2 (stereo not shown) [Material 413] | K (Log of liquid dish neat product liquid-air partition coefficient greater than or equal to −7)
27 | Cc1cccc(CC(C)(C)CO)c1 [Material 140] | K (Log of liquid dish neat product liquid-air partition coefficient greater than or equal to −7)
28 | CC/C=C\CCC1=CCCC1=O [Material 146] | K (Log of liquid dish neat product liquid-air partition coefficient greater than or equal to −7)
29 | C=CCc1ccc(O)c(OC)c1 [Material 375] | K (Log of liquid dish neat product liquid-air partition coefficient greater than or equal to −7)
30 | CC(=CC#N)CCc1ccccc1 [Material 505] | K (Log of liquid dish neat product liquid-air partition coefficient greater than or equal to −7)
31 | CC1COCc2cc3c(cc21)C(C)(C)C(C)C3(C)C (stereo not shown) [Material 335] | K (Log of liquid dish neat product liquid-air partition coefficient greater than or equal to −7)
32 | C=CC(C)(O)CCC=C(C)CCC=C(C)C (stereo not shown) [Material 63] | K (Log of liquid dish neat product liquid-air partition coefficient greater than or equal to −7)
33 | CC1C(C)(C)C2=C(C3OC(C)(C)OC3CC2)C1(C)C (stereo not shown) [Material 23] | K (Log of liquid dish neat product liquid-air partition coefficient greater than or equal to −7)
34 | C=CC1(C)CCC(C(C)(C)O)O1 (stereo not shown) [Material 155] | K (Log of liquid dish neat product liquid-air partition coefficient greater than or equal to −7)
35 | C=CC(O)(CC)CCC=C(C)C (stereo not shown) [Material 390] | K (Log of liquid dish neat product liquid-air partition coefficient greater than or equal to −7)
36 | COC1CCCCCCCCCCC1 [Material 9] | K (Log of liquid dish neat product liquid-air partition coefficient greater than or equal to −7)
37 | C=CCCCCCCCCC(=O)OCC [Material 381] | K (Log of liquid dish neat product liquid-air partition coefficient greater than or equal to −7)
38 | CCOC(C)OCCc1ccccc1 (stereo not shown) [Material 415] | K (Log of liquid dish neat product liquid-air partition coefficient greater than or equal to −7)
39 | O=C1CCCCCCCCCCCCCC1 [Material 480] | K (Log of liquid dish neat product liquid-air partition coefficient greater than or equal to −7)

same assay, conditions: code letters K, L

Row | Structure (SMILES) | Comment Code: Log of liquid dish neat product liquid-air partition coefficient
40 | CC(=O)OC12CCCC(C)(CCC3C1CC3(C)C)C2 (stereo not shown) [Material 573] | K (Log of liquid dish neat product liquid-air partition coefficient greater than or equal to −7)
41 | CC12CCCC(O)(C1)C1CC(C)(C)C1CC2 (stereo not shown) [Material 574] | K (Log of liquid dish neat product liquid-air partition coefficient greater than or equal to −7)
42 | C=C(OC(C)=O)c1ccccc1 [Material 931] | K (Log of liquid dish neat product liquid-air partition coefficient greater than or equal to −7)
43 | CC1=CC(C)C2(CCCC(C)(C)C2=O)CC1 (stereo not shown) [Material 1022] | K (Log of liquid dish neat product liquid-air partition coefficient greater than or equal to −7)
44 | CC(=O)CCC1C(C)=CCCC1(C)C (stereo not shown) [Material 448] | K (Log of liquid dish neat product liquid-air partition coefficient greater than or equal to −7)
45 | CC(=O)C(C)=CC1C(C)=CCCC1(C)C (stereo not shown) [Material 703] | K (Log of liquid dish neat product liquid-air partition coefficient greater than or equal to −7)
46 | CCc1ccccc1CC(C)(C)C=O [Material 354] | K (Log of liquid dish neat product liquid-air partition coefficient greater than or equal to −7)
47 | C=C(C)[C@@H]1CCC2=CC(=O)C[C@@H](C)[C@]2(C)C1 [Material 48] | K (Log of liquid dish neat product liquid-air partition coefficient greater than or equal to −7)
48 | CC(=O)CCc1ccccc1 [Material 640] | K (Log of liquid dish neat product liquid-air partition coefficient greater than or equal to −7)
49 | CC/C(=C/CC1CC=C(C)C1(C)C)CO (stereo not shown) [Material 1024] | K (Log of liquid dish neat product liquid-air partition coefficient greater than or equal to −7)
50 | C=C(C)C(=O)OCCc1ccccc1 [Material 971] | K (Log of liquid dish neat product liquid-air partition coefficient greater than or equal to −7)
51 | CC1COCc2cc3c(cc21)C(C)(C)C(C)C3(C)C (stereo not shown) [Material 335] | K (Log of liquid dish neat product liquid-air partition coefficient greater than or equal to −7)
52 | CCC(=O)OC(C)c1ccccc1 (stereo not shown) [Material 96] | K (Log of liquid dish neat product liquid-air partition coefficient greater than or equal to −7)
53 | CC1C(C)(C)C2=C(C3OC(C)(C)OC3CC2)C1(C)C (stereo not shown) [Material 23] | K (Log of liquid dish neat product liquid-air partition coefficient greater than or equal to −7)
54 | C=C[C@@](C)(O)CCC=C(C)C [Material 1017] | K (Log of liquid dish neat product liquid-air partition coefficient greater than or equal to −7)
55 | CC(C)C(=O)OCCc1ccccc1 [Material 958] | K (Log of liquid dish neat product liquid-air partition coefficient greater than or equal to −7)
